Measurements published in patent publication US9757408B2 (Hayashibara Co., Ltd., priority 2010, dated 2017).
Marks after values point to notes of the source that are not given here.

Columns and labels:
[1] = test system: IL-6 in serum of mice administered with LPS; experiment: Serum IL-6 in LPS-administered mice, ANO i.v. (Experiment 7); format: in vivo, BALB/c mice; conditions: LPS 18 mg/kg i.p., serum two hours after LPS
Experimental: More specifically, 18 BALB/c female mice, 9-week-old, commercialized by Japan Charles River, Tokyo, Japan, were randomly divided into three groups, six heads each. An LPS specimen derived from E. coli (055:B5), commercialized by Sigma-Aldrich Corporation, St. Louis, Mo. USA, was dissolved in physiological saline and intraperitoneally administered to all the 6 mice in respective three groups at a dose of 18 mg/kg body weight of LPS (Experiment groups 1 to 3). […] To the six mice of the remaining one group was intravenously administered PBS in a liquid volume of 0.2 mL/head simultaneously with the administration of LPS (Experiment group 1).
For the mice in each group, they were collected blood at two hours after the LPS administration, followed by assaying the level of TNF-α, IL-6, IL-10, and IL-12 in each serum and averaging the data for each group. For the assay of the level of TNF-α, the same ELISA as in Experiment 2 was used and for the assay of the level of IL-6, the same ELISA as in Experiment 3 was used. […]

[2] = test system: TNF-α production from THP-1 cells; adenosine receptors A1R, A2AR, A2BR, A3R; experiment: TNF-α production from THP-1 cells, LPS + IFN-γ, ANO with adenosine receptor antagonists (Experiment 5); format: cell-based; conditions: LPS + human IFN-γ, ANO 5 μM
Source text: USA; ZM241385, commercialized by Tocris Bioscience, MSY USA; MRS1754, commercialized by Sigma-Aldrich Corporation, St. Louis, Mo. […] The results are in Table 5 in parallel.

[3] = test system: IL-10 in serum of mice administered with LPS; experiment: Serum IL-10 in LPS-administered mice, oral administration (Experiment 11); format: in vivo, BALB/c mice; conditions: LPS 18 mg/kg i.p., serum 90 min after LPS
Experimental: The seven mice in another one group were orally administered through a gastric tube with 3′-glucosyl-adenosine N1-oxide, which had been dissolved in PBS, at a dose of 200 mg/kg body weight in a liquid volume of 0.2 mL/head (Experiment group 4). The seven mice in the remaining one group were orally administered through a gastric tube with PBS in a liquid volume of 0.2 mL/head (Experiment group 1). All the mice were intraperitoneally administered with an LPS specimen derived from E. coli (055:B5), commercialized by Sigma-Aldrich Corporation, St. Louis, Mo. USA, which had been dissolved in PBS, at a dose of 18 mg/kg body weight (Experiment groups 1 to 4). For each group, the mice were collected blood from their tail veins at 90 min after administering LPS, followed by assaying the concentrations of TNF-α, IL-6, and IL-10 contained in serum by the same method as in […].

Nc1c2ncn([C@@H]3O[C@H](CO)[C@@H](O)[C@H]3O)c2nc[n+]1[O-] [ANO, adenosine N1-oxide]
IL-6 Concentration ([1]; ANO 68 mg/kg i.v.): 59.1 ng/mL
IL-6 Concentration ([1]; ANO 135 mg/kg i.v.): 46.3* ng/mL
TNF-α Concentration ([2]; no antagonist): 97 pg/mL
TNF-α Concentration ([2]; pretreated with DPCPX 0.5 μM): 132** pg/mL
TNF-α Concentration ([2]; pretreated with DPCPX 1 μM): 130** pg/mL
TNF-α Concentration ([2]; pretreated with DPCPX 5 μM): 129** pg/mL
TNF-α Concentration ([2]; pretreated with DPCPX 10 μM): 133** pg/mL
TNF-α Concentration ([2]; pretreated with MRS1220 0.5 μM): 105** pg/mL
TNF-α Concentration ([2]; pretreated with MRS1220 1 μM): 105** pg/mL
TNF-α Concentration ([2]; pretreated with MRS1220 5 μM): 105** pg/mL
TNF-α Concentration ([2]; pretreated with MRS1220 10 μM): 102** pg/mL
TNF-α Concentration ([2]; pretreated with MRS1754 0.5 μM): 118** pg/mL
TNF-α Concentration ([2]; pretreated with MRS1754 1 μM): 121** pg/mL
TNF-α Concentration ([2]; pretreated with MRS1754 5 μM): 121** pg/mL
TNF-α Concentration ([2]; pretreated with MRS1754 10 μM): 103* pg/mL
TNF-α Concentration ([2]; pretreated with ZM241385 0.5 μM): 135** pg/mL
TNF-α Concentration ([2]; pretreated with ZM241385 1 μM): 137** pg/mL
TNF-α Concentration ([2]; pretreated with ZM241385 5 μM): 135** pg/mL
TNF-α Concentration ([2]; pretreated with ZM241385 10 μM): 132** pg/mL
Amount of IL-10 ([3]; oral 100 mg/kg): 5.6* ng/mL
Amount of IL-10 ([3]; oral 200 mg/kg): 9.7** ng/mL
